Measurements taken from ChEMBL document CHEMBL1154295, “Potent and selective steroidal inhibitors of 17beta-hydroxysteroid dehydrogenase type 7, an enzyme that catalyzes the reduction of the key hormones estrone and dihydrotestosterone” (J Med Chem, 2009).

What was measured:
[1] = biological target: T1, 3-keto-steroid reductase/17-beta-hydroxysteroid dehydrogenase 7 (Homo sapiens) (UniProt P56937); conditions: HEK293, at 0.3 µM
T1 sequence (whole entry): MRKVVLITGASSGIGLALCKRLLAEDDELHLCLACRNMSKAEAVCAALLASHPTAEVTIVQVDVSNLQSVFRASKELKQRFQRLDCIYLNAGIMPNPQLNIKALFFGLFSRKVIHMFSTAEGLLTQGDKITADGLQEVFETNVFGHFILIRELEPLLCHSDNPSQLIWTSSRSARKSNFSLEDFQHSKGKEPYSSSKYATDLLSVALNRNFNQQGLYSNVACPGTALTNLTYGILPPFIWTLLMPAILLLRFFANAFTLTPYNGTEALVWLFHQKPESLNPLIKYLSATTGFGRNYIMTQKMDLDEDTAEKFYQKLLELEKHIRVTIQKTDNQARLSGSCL
Description: Inhibition of human 17beta-HSD7 expressed in HEK293 cells assessed as inhibition of reduction of [14C]estrone into [14C]estradiol at 0.3 uM after 7 hrs

[2] = biological target: T1, 3-keto-steroid reductase/17-beta-hydroxysteroid dehydrogenase 7 (Homo sapiens); conditions: HEK293, at 3 µM
Description: Inhibition of human 17beta-HSD7 expressed in HEK293 cells assessed as inhibition of reduction of [14C]estrone into [14C]estradiol at 3 uM after 7 hrs

SMILES | inhibition [1] | inhibition [2]
COCCOc1ccc2c(c1)CC[C@@H]1[C@@H]2CC[C@@]2(C)[C@H]1CC[C@@]21CCC(C)(C)C(=O)O1 | 23.8% | 52.3%
C[C@]12CC[C@H]3[C@@H](CCC4=CC(=O)CC[C@@]43C)[C@@H]1CC[C@@H]2C(=O)CO | 11.2% | 11.9%
C=CC[C@@]1(O)CC[C@H]2[C@@H]3CC[C@H]4N(C)C(=O)CC[C@]4(C)[C@H]3CC[C@@]21C | 13.3% | 4.9%
O=c1cc(-c2ccccc2)oc2cc(O)cc(O)c12 | 6.8% | 5.1%
CN1C(=O)CC[C@]2(C)[C@H]3CC[C@]4(C)[C@@H](NC(=O)C(C)(C)C)CC[C@H]4[C@@H]3CC[C@@H]12 | 13.5% | 55.9%
CN1C(=S)CC[C@]2(C)[C@H]3CC[C@@]4(C)[C@@H](CC[C@@]45CCCC(=S)O5)[C@@H]3CC[C@@H]12 | 5.3% | 36.5%
C[C@@]12CCC[C@H]1[C@@H]1CCc3cc(O)ccc3[C@H]1CC2 | 4.5% | 6%
C[C@]12CC[C@@H](O)C[C@@H]1CC[C@@H]1[C@@H]2CC[C@]2(C)[C@@H](O)CC[C@@H]12 | 1.1% | 8.4%
CC1(C)CC[C@@]2(CC[C@H]3[C@@H]4CCc5cc(O)c(I)cc5[C@H]4CC[C@@]32C)OC1=O | 10% | 24.9%
C[C@]12CCC(=O)N[C@@H]1CC[C@@H]1[C@@H]2CC[C@]2(C)[C@@H](N(C(=O)c3ccccc3)c3ccccc3)CC[C@@H]12 | 24% | 64.1%
C[C@]12CC[C@@]3(C[C@H]1CC[C@@H]1[C@@H]2CC[C@]2(C)C(=O)CC[C@@H]12)CN(CC(CN1CCOCC1)OC(=O)CCC1CCCC1)C(=O)O3 (stereo partly drawn) | 18.9% | 8.7%
CC1(C)CC[C@@]2(CC[C@H]3[C@@H]4CCc5cc(O)c(C(N)=O)cc5[C@H]4CC[C@@]32C)OC1=O | 7.9% | 23.8%
CC1(C)CC[C@@]2(CC[C@H]3[C@@H]4CC[C@H]5NC(=O)C=C[C@]5(C)[C@H]4CC[C@@]32C)OC1=O | 5% | 39.6%
C[C@]12CCC(=O)N[C@@H]1CC[C@@H]1[C@@H]2CC[C@]2(C)[C@@H](N3CCC3=O)CC[C@@H]12 | 15.4% | 20.3%
C[C@]12CC[C@@H]3c4ccccc4CC[C@H]3[C@@H]1CC[C@@]21CCCC(=O)O1 | 6.1% | 4.7%
C#C[C@]1(O)CC[C@H]2[C@@H]3CCc4cc(O)ccc4[C@H]3CC[C@@]21C | 8.3% | 3.4%
CN1C(=O)CC[C@]2(C)[C@H]3CC[C@]4(C)[C@@H](Nc5ccc([N+](=O)[O-])cc5)CC[C@H]4[C@@H]3CC[C@@H]12 | 40.9% | 88%
CCCC1CC[C@@]2(CC[C@H]3[C@@H]4CCc5cc(O)ccc5[C@H]4CC[C@@]32C)OC1=O (stereo partly drawn) | 15.8% | 47.1%
C[C@]12CCC(=O)C[C@@H]1CC[C@@H]1[C@@H]2CC[C@@]2(C)[C@H]1CC[C@@]21CCCC(=O)O1 | 18.6% | 30.9%
C[C@]12CC[C@@H]3c4ccc(O)cc4CC[C@H]3[C@@H]1C[C@@H](CCBr)[C@@H]2O | 5.8% | 4.5%

SMILES | inhibition [1] | inhibition [2]
CCCCCNC(=O)[C@H]1CC[C@H]2[C@@H]3CC[C@H]4N(C)C(=O)CC[C@]4(C)[C@H]3CC[C@]12C | 52.7% | 96.3%
CN1C(=O)CC[C@]2(C)[C@H]3CC[C@@]4(C)[C@@H](CC[C@@]4(O)C#CC(C)(C)I)[C@@H]3CC[C@@H]12 | 20.2% | 72%
CCCCCCN(C=O)[C@H]1CC[C@H]2[C@@H]3CC[C@H]4N(C)C(=O)CC[C@]4(C)[C@H]3CC[C@]12C | 94.1% | 100%
C[C@]12CC[C@H](O)CC1=CC[C@@H]1[C@@H]2CC[C@]2(C)C(=O)CC[C@@H]12 | 5.7% | 12.1%
CC1(C)CC[C@@]2(CC[C@H]3[C@@H]4CCc5cc(C(=O)O)ccc5[C@H]4CC[C@@]32C)OC1=O | 28.1% | 20.9%
CN(C=O)[C@H]1CC[C@H]2[C@@H]3CC[C@H]4N(C)C(=O)CC[C@]4(C)[C@H]3CC[C@]12C | 14.5% | 15.8%
CC(=O)C1CC[C@@]2(CC[C@H]3[C@@H]4CCc5cc(O)ccc5[C@H]4CC[C@@]32C)OC1=O (stereo partly drawn) | 2.1% | 14.8%
CCCNC(=O)N(C1CC1)[C@H]1CC[C@H]2[C@@H]3CC[C@H]4N(C)C(=O)CC[C@]4(C)[C@H]3CC[C@]12C | 12.9% | 41.5%
CN1C(=O)CC[C@]2(C)[C@H]3CC[C@]4(C)[C@@H](N5CCCC5=O)CC[C@H]4[C@@H]3CC[C@@H]12 | 15.3% | 15.1%
CC1(C)CC[C@@]2(CC[C@H]3[C@@H]4CCc5cc(C(N)=O)ccc5[C@H]4CC[C@@]32C)OC1=O | 11.6% | 27%
CCCCCN(C=O)[C@H]1CC[C@H]2[C@@H]3CC[C@H]4NC(=O)CC[C@]4(C)[C@H]3CC[C@]12C | 35.2% | 89.1%
CCC1(CC)CC[C@@]2(CC[C@H]3[C@@H]4CCc5cc(O)ccc5[C@H]4CC[C@@]32C)OC1=O | 15.2% | 39.6%
CC1=C(c2ccc(OC(=O)C(C)(C)C)cc2)[C@H](c2ccc(OCCN3CCCCC3)cc2)Oc2cc(OC(=O)C(C)(C)C)ccc21 | 0% | 0%
C[C@]12CC[C@@H](O)C[C@H]1CC[C@@H]1[C@@H]2CC[C@]2(C)[C@@H](O)CC[C@@H]12 | 2.9% | 6%
C[C@@]12C=CC[C@H]1[C@@H]1CCc3cc(O)ccc3[C@H]1CC2 | 7.5% | 5.8%
CCCN(C=O)[C@H]1CC[C@H]2[C@@H]3CC[C@H]4N(C)C(=O)CC[C@]4(C)[C@H]3CC[C@]12C | 21.7% | 56.3%
CCCCN(C)C(=O)C[C@@H]1Cc2cc(O)ccc2[C@H]2CC[C@@]3(C)[C@@H](CC[C@@]34CCC(=O)O4)[C@H]12 | 17.1% | 15.5%
CN1C(=O)CC[C@]2(C)[C@H]3CC[C@]4(C)[C@@H](N(C=O)C5CCCCC5)CC[C@H]4[C@@H]3CC[C@@H]12 | 23.9% | 75.2%
C[C@]12CCC(=O)C=C1CC[C@@H]1[C@@H]2[C@@H](O)C[C@]2(C=O)[C@@H](C(=O)CO)CC[C@@H]12 | 14.4% | 7.3%
COC(=O)c1ccc2c(c1)CC[C@@H]1[C@@H]2CC[C@@]2(C)[C@H]1CC[C@@]21CCC(C)(C)C(=O)O1 | 15.1% | 49%

SMILES | inhibition [1] | inhibition [2]
CN1C(=O)CC[C@]2(C)[C@H]3CC[C@]4(C)[C@@H](Nc5ccc([N+](=O)[O-])c(C(F)(F)F)c5)CC[C@H]4[C@@H]3CC[C@@H]12 | 66.1% | 100%
CC1(C)CC[C@@]2(CC[C@H]3[C@@H]4CCc5cc(O)ccc5[C@H]4CC[C@@]32C)OC1=O | 20.1% | 69.4%
CCN(C(=O)c1ccccc1)[C@H]1CC[C@H]2[C@@H]3CC[C@H]4N(C)C(=O)CC[C@]4(C)[C@H]3CC[C@]12C | 63.4% | 99.4%
CC(C)NC(=O)N(C1CC1)[C@H]1CC[C@H]2[C@@H]3CC[C@H]4N(C)C(=O)C=C[C@]4(C)[C@H]3CC[C@]12C | 3.6% | 2.5%
CN1C(=O)CC[C@]2(C)[C@H]3CC[C@]4(C)[C@@H](N(C=O)C5CC5)CC[C@H]4[C@@H]3CC[C@@H]12 | 17.6% | 41.2%
COc1cc2c(cc1S(N)(=O)=O)CC[C@@H]1[C@@H]2CC[C@@]2(C)[C@H]1CCC2(O)Cc1ccc(C(C)(C)C)cc1 (stereo partly drawn) | 0% | 6.4%
CC(C)NC(=O)N(C1CC1)[C@H]1CC[C@H]2[C@@H]3CC[C@H]4N(C)C(=O)CC[C@]4(C)[C@H]3CC[C@]12C | 16.5% | 37.3%
CCOc1ccc2c(c1)CC[C@@H]1[C@@H]2CC[C@@]2(C)[C@H]1CC[C@@]21CCC(C)(C)C(=O)O1 | 20.6% | 29.3%
CN(C(=O)NC1CCCCC1)[C@H]1CC[C@H]2[C@@H]3CC[C@H]4N(C)C(=O)CC[C@]4(C)[C@H]3CC[C@]12C | 12.2% | 16.3%
CC1(C)CC[C@@]2(CC[C@H]3[C@@H]4CCC5CC(=O)CC[C@]5(C)[C@H]4CC[C@@]32C)OC1=O (stereo partly drawn) | 2.2% | 26.4%
CCCNC(=O)N(C)[C@H]1CC[C@H]2[C@@H]3CC[C@H]4N(C)C(=O)CC[C@]4(C)[C@H]3CC[C@]12C | 2.7% | 2.2%
C[C@]12CCC(=O)C=C1CC[C@@H]1[C@@H]2CC[C@@]2(C)[C@H]1CC[C@]2(O)C(=O)CO | 9.8% | 0%
O=c1oc2cc(O)ccc2c2oc3cc(O)ccc3c12 | 5.5% | 2.3%
CN1C(=S)CC[C@]2(C)[C@H]3CC[C@@]4(C)[C@@H](CC[C@@]45CCCC(=O)O5)[C@@H]3CC[C@@H]12 | 11.9% | 12.9%
CC1(C)CC[C@@]2(CC[C@H]3[C@@H]4CCc5c(cc(Cl)c(O)c5Cl)[C@H]4CC[C@@]32C)OC1=O | 20.2% | 37%
CC1(C)CC[C@@]2(CC[C@H]3[C@@H]4CCc5cc(OS(=O)(=O)c6ccccc6)ccc5[C@H]4CC[C@@]32C)OC1=O | 11.7% | 29.5%
CC(C)C(=O)Nc1ccc([N+](=O)[O-])c(C(F)(F)F)c1 | 18.6% | 10.8%
CC1(C)CC[C@@]2(CC[C@H]3[C@@H]4CCc5cc(OP(=O)(O)O)ccc5[C@H]4CC[C@@]32C)OC1=O | 0% | 16.5%
CC1(C)CC[C@@]2(CC[C@H]3[C@@H]4CCc5cc(C(N)=S)ccc5[C@H]4CC[C@@]32C)OC1=O | 18.5% | 60.9%
